In US8759318B2, “Phosphoramidate derivatives of guanosine nucleoside compounds for treatment of viral infections” (Inhibitex, Inc., priority 2009, dated 2014):
Read-outs that look alike come from different tables or passages of the source.

What was measured:
in vitro = conditions: human
[1] = test system: HCV replicon (Genotype 1b); assay: Luciferase genotype 1b replicon potency assay; conditions: Hepatitis C virus
[2] = GETYPE1B, read-out: IC50 μM, HCV genotype 1b luciferase replicon, Renilla luciferase reporter

Compound	CC50 (in vitro) [µM]	IC50 [1, 2] [µM]	IC50 ([1]; read-out: IC50 μM) [µM]
COc1nc(N)nc2c1ncn2C1O[C@H](COP(=O)(N[C@@H](C(=O)OC2CCCCC2)c2ccccc2)Oc2cccc3ccccc23)[C@@H](O)[C@@]1(C)O (stereo partly drawn) [Example 71, (2R)-cyclohexyl 2-((((2R,3R,4R)-5-(2-amino-6-methoxy-9H-purin-9-yl)-3,4-dihydroxy-4-methyltetrahydrofuran-2-yl)methoxy)(naphthalen-1-yloxy)phosphorylamino)-2-phenylacetate]	26	2.5	–
CCOc1nc(N)nc2c1ncn2C1O[C@H](COP(=O)(N[C@@H](C)C(=O)OCc2ccccc2)Oc2cccc3ccccc23)[C@@H](O)[C@@]1(C)O (stereo partly drawn) [Example 73, (2S)-benzyl 2-((((2R,3R,4R)-5-(2-amino-6-ethoxy-9H-purin-9-yl)-3,4-dihydroxy-4-methyltetrahydrofuran-2-yl)methoxy)(naphthalen-1-yloxy)phosphorylamino)propanoate]	11	0.037	–
CCOc1nc(N)nc2c1ncn2C1O[C@H](COP(=O)(N[C@@H](C)C(=O)OCc2ccc(F)cc2F)Oc2cccc3ccccc23)[C@@H](O)[C@@]1(C)O (stereo partly drawn) [Example 74, (2S)-2,4-difluorobenzyl 2-((((2R,3R,4R)-5-(2-amino-6-ethoxy-9H-purin-9-yl)-3,4-dihydroxy-4-methyltetrahydrofuran-2-yl)methoxy)(naphthalen-1-yloxy)phosphorylamino)propanoate]	17	0.034	–
CCOc1nc(N)nc2c1ncn2C1O[C@H](COP(=O)(N[C@@H](C)C(=O)O[C@@H](C)c2ccccc2)Oc2cccc3ccccc23)[C@@H](O)[C@@]1(C)O (stereo partly drawn) [Example 75, (2S)-((S)-1-phenylethyl) 2-((((2R,3R,4R)-5-(2-amino-6-ethoxy-9H-purin-9-yl)-3,4-dihydroxy-4-methyltetrahydrofuran-2-yl)methoxy)(naphthalen-1-yloxy)phosphorylamino)propanoate]	12	0.063	–
CCOc1nc(N)nc2c1ncn2C1O[C@H](COP(=O)(N[C@@H](C)C(=O)OCC(C)(C)C)Oc2cccc3ccccc23)[C@@H](O)[C@@]1(C)O (some centres unmarked) [Example 76]	10	0.01	–
CCOc1nc(N)nc2c1ncn2C1O[C@H](COP(=O)(N[C@@H](C)C(=O)OC(C)C)Oc2cccc3ccccc23)[C@@H](O)[C@@]1(C)O (stereo partly drawn) [Example 77, (2S)-isopropyl 2-((((2R,3R,4R)-5-(2-amino-6-ethoxy-9H-purin-9-yl)-3,4-dihydroxy-4-methyltetrahydrofuran-2-yl)methoxy)(naphthalen-1-yloxy)phosphorylamino)propanoate]	40	0.11	–
CCOc1nc(N)nc2c1ncn2C1O[C@H](COP(=O)(N[C@@H](C)C(=O)OC2CCOCC2)Oc2cccc3ccccc23)[C@@H](O)[C@@]1(C)O (stereo partly drawn) [Example 78, (2S)-tetrahydro-2H-pyran-4-yl 2-((((2R,3R,4R)-5-(2-amino-6-ethoxy-9H-purin-9-yl)-3,4-dihydroxy-4-methyltetrahydrofuran-2-yl)methoxy)(naphthalen-1-yloxy)phosphorylamino)propanoate]	47	0.059	–
CCOc1nc(N)nc2c1ncn2C1O[C@H](COP(=O)(N[C@H](C(=O)OCC(C)(C)C)C(C)C)Oc2cccc3ccccc23)[C@@H](O)[C@@]1(C)O (stereo partly drawn) [Example 79, (2S)-neopentyl 2-((((2R,3R,4R)-5-(2-amino-6-ethoxy-9H-purin-9-yl)-3,4-dihydroxy-4-methyltetrahydrofuran-2-yl)methoxy)(naphthalen-1-yloxy)phosphorylamino)-3-methylbutanoate]	24	0.22	–
CNc1nc(N)nc2c1ncn2C1O[C@H](COP(=O)(N[C@@H](C)C(=O)OCC(C)(C)C)Oc2cccc3ccccc23)[C@@H](O)[C@@]1(C)O (stereo partly drawn) [Example 81, (2S)-neopentyl 2-((((2R,3R,4R)-5-(2-amino-6-(methylamino)-9H-purin-9-yl)-3,4-dihydroxy-4-methyltetrahydrofuran-2-yl)methoxy)(naphthalen-1-yloxy)phosphorylamino)propanoate]	48	–	0.033
CNc1nc(N)nc2c1ncn2C1O[C@H](COP(=O)(N[C@@H](C)C(=O)O[C@@H](C)c2ccccc2)Oc2cccc3ccccc23)[C@@H](O)[C@@]1(C)O (stereo partly drawn) [Example 82, (2S)-((S)-1-phenylethyl) 2-((((2R,3R,4R)-5-(2-amino-6-(methylamino)-9H -purin-9-yl)-3,4-dihydroxy-4-methyltetrahydrofuran-2-yl)methoxy) (naphthalen-1-yloxy)phosphorylamino)propanoate]	54	0.11	–
CNc1nc(N)nc2c1ncn2[C@@H]1O[C@H](COP(=O)(N[C@@H](C)C(=O)OCC(C)(C)C)Oc2ccc3ncccc3c2)[C@@H](O)[C@@]1(C)O (stereo partly drawn) [Example 83, (2S)-neopentyl 2-((((2R,3R,4R,5R)-5-(2-amino-6-(methylamino)-9H-purin-9-yl)-3,4-dihydroxy-4-methyltetrahydrofuran-2-yl)methoxy)(quinolin-6-yloxy)phosphorylamino)propanoate]	> 100	0.36	–
C[C@H](NP(=O)(OC[C@H]1OC(n2cnc3c(NCc4ccccc4)nc(N)nc32)[C@](C)(O)[C@@H]1O)Oc1cccc2ccccc12)C(=O)OCC(C)(C)C (some centres unmarked) [Example 85]	15	0.58	–
C[C@H](NP(=O)(OC[C@H]1OC(n2cnc3c(NCCc4ccccc4)nc(N)nc32)[C@](C)(O)[C@@H]1O)Oc1cccc2ccccc12)C(=O)OCC(C)(C)C (stereo partly drawn) [Example 87, (2S)-neopentyl 2-((((2R,3R,4R)-5-(2-amino-6-(phenethylamino)-9H-purin-9-yl)-3,4-dihydroxy-4-methyltetrahydrofuran-2-yl)methoxy)(naphthalen-1-yloxy)phosphorylamino)propanoate]	42	0.27	–
CSc1nc(N)nc2c1ncn2C1O[C@H](COP(=O)(N[C@@H](C)C(=O)O[C@@H](C)c2ccccc2)Oc2cccc3ccccc23)[C@@H](O)[C@@]1(C)O (stereo partly drawn) [Example 89, (2S)-((S)-1-phenylethyl) 2-((((2R,3R,4R)-5-(2-amino-6-(methylthio)-9H-purin-9-yl)-3,4-dihydroxy-4-methyltetrahydrofuran-2-yl)methoxy)(naphthalen-1-yloxy)phosphorylamino)propanoate]	27	0.14	–
CSc1nc(N)nc2c1ncn2C1O[C@H](COP(=O)(N[C@@H](C)C(=O)OCC(C)(C)C)Oc2cccc3ccccc23)[C@@H](O)[C@@]1(C)O (stereo partly drawn) [Example 90, (2S)-neopentyl 2-((((2R,3R,4R)-5-(2-amino-6-(methylthio)-9H-purin-9-yl)-3,4-dihydroxy-4-methyltetrahydrofuran-2-yl)methoxy)(naphthalen-1-yloxy)phosphorylamino)propanoate]	41	0.033	–
CSc1nc(N)nc2c1ncn2[C@@H]1O[C@H](COP(=O)(N[C@@H](C)C(=O)OCC(C)(C)C)Oc2ccc3ncccc3c2)[C@@H](O)[C@@]1(C)O (stereo partly drawn) [Example 91, (2S)-neopentyl 2-((((2R,3R,4R,5R)-5-(2-amino-6-(methylthio)-9H-purin-9-yl)-3,4-dihydroxy-4-methyltetrahydrofuran-2-yl)methoxy)(quinolin-6-yloxy)phosphorylamino)propanoate]	> 100	0.26	–
COc1nc(NCc2ccc(F)cc2)nc2c1ncn2[C@@H]1O[C@H](COP(=O)(N[C@@H](C)C(=O)OCC(C)(C)C)Oc2cccc3ccccc23)[C@@H](O)[C@@]1(C)O (stereo partly drawn) [Example 93, (2S)-neopentyl 2-((((2R,3R,4R,5R)-5-(2-(4-fluorobenzylamino)-6-methoxy-9H-purin-9-yl)-3,4-dihydroxy-4-methyltetrahydrofuran-2-yl)methoxy)(naphthalen-1-yloxy)phosphorylamino)propanoate]	17	7.2	–
COc1nc(N)nc2c1ncn2C1O[C@H](COP(=O)(N[C@@H](C)C(=O)OCc2ccccc2)Oc2cccc3ccccc23)C[C@@]1(C)O (stereo partly drawn) [Example 95, (2S)-benzyl 2-((((2S,4R)-5-(2-amino-6-methoxy-9H-purin-9-yl)-4-hydroxy-4-methyltetrahydrofuran-2-yl)methoxy)(naphthalen-1-yloxy)phosphorylamino)propanoate]	70	0.9	–
COc1nc(N)nc2c1ncn2C1O[C@H](COP(=O)(N[C@@H](C)C(=O)O[C@@H](C)c2ccccc2)Oc2cccc3ccccc23)C[C@@]1(C)O (stereo partly drawn) [Example 96, (2S)-((S)-1-phenylethyl) 2-((((2S,4R)-5-(2-amino-6-methoxy-9H-purin-9-yl)-4-hydroxy-4-methyltetrahydrofuran-2-yl)methoxy)(naphthalen-1-yloxy)phosphorylamino)propanoate]	20	> 10	–
COc1nc(N)nc2c1ncn2C1O[C@H](COP(=O)(N[C@@H](C)C(=O)OCC(C)(C)C)Oc2cccc3ccccc23)C[C@@]1(C)O (stereo partly drawn) [Example 97, (2S)-neopentyl 2-((((2S,4R)-5-(2-amino-6-methoxy-9H-purin-9-yl)-4-hydroxy-4-methyltetrahydrofuran-2-yl)methoxy)(naphthalen-1-yloxy)phosphorylamino)propanoate]	44	> 10	–
COc1nc(N)nc2c1ncn2C1O[C@H](COP(=O)(N[C@@H](C)C(=O)OC2CCCCC2)Oc2cccc3ccccc23)C[C@@]1(C)O (stereo partly drawn) [Example 98, (2S)-cyclohexyl 2-((((2S,4R)-5-(2-amino-6-methoxy-9H-purin-9-yl)-4-hydroxy-4-methyltetrahydrofuran-2-yl)methoxy)(naphthalen-1-yloxy)phosphorylamino)propanoate]	20	> 10	–
COc1nc(N)nc2c1ncn2C1O[C@H](COP(=O)(N[C@H](C(=O)OCc2ccccc2)C(C)C)Oc2cccc3ccccc23)C[C@@]1(C)O (stereo partly drawn) [Example 99, benzyl (2S)-benzyl 2-((((2S,4R)-5-(2-amino-6-methoxy-9H-purin-9-yl)-4-hydroxy-4-methyltetrahydrofuran-2-yl)methoxy)(naphthalen-1-yloxy)phosphorylamino)-3-methylbutanoate]	22	> 10	–
